These compounds were tested against human PDE4D catalytic domain (UniProt no. Q08499) (Homo sapiens (Human), UniProt Q08499) (assay: PDE4 assay (TR-FRET, FAM-cAMP cleavage)). Conditions: human PDE4D catalytic domain; molar concentration giving 50% inhibition of substrate cleavage; read-out: PDE4 IC50 range.
Format: biochemical
In short: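 PDE4D catalytic domain ([…]) was incubated with unlabelled cAMP plus FAM-cAMP and titrated compound, stopped with binding buffer of metal-ion nanoparticles and Tb donor. AMP generation read by TR-FRET; IC50 as 50% inhibition of cleavage versus controls, reported as nM ranges.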

Chain of human PDE4D catalytic domain (Q08499 380-740 limits assumed): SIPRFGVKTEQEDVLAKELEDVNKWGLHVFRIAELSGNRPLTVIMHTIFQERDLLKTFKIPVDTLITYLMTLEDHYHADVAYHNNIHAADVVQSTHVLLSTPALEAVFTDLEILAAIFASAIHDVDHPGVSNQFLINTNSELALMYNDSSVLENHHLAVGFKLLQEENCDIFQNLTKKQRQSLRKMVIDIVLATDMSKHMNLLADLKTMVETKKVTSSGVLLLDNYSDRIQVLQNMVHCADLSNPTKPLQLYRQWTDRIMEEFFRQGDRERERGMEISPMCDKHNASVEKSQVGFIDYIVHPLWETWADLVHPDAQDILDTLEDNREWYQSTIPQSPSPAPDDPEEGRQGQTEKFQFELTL

**Q.** `CCc1nn(CCCOC(=O)CCS(C)(=O)=O)c2c1C(=O)NCC1(CCOCC1)C2` [Example 31, 3-(3-ethyl-4-oxo-spiro[6,8-dihydro-5H-pyrazolo[4,3-c]azepine-7,4′-tetrahydropyran]-1-yl)propyl 3-methylsulfonylpropanoate] was tested. Which IC50 did it give?
**A.** > 500 nM

**Q.** How did the IC50 turn out when `CCc1nn(C[C@@H](C)COC(=O)c2ccc(C(N)=O)cc2)c2c1C(=O)NCC1(CCOCC1)C2` [Example 252, [(2R)-3-(3-ethyl-4-oxo-spiro[6,8-dihydro-5H-pyrazolo[4,3-c]azepine-7,4′-tetrahydropyran]-1-yl)-2-methyl-propyl] 4-carbamoylbenzoate] was run?
**A.** < 100 nM

**Q.** `CCc1nn(C[C@@H](C)COC(=O)c2ccc(OC)cc2C(F)(F)F)c2c1C(=O)NCC1(CCOCC1)C2` [Example 229, [(2R)-3-(3-ethyl-4-oxo-spiro[6,8-dihydro-5H-pyrazolo[4,3-c]azepine-7,4′-tetrahydropyran]-1-yl)-2-methyl-propyl] 4-methoxy-2-(trifluoromethyl)benzoate] was tested. Which IC50 did it give?
**A.** < 100 nM

**Q.** `CCc1nn(CCCOC(=O)c2ccc(C#N)c(F)c2)c2c1C(=O)NCC1(CCOCC1)C2` [Example 52, 3-(3-ethyl-4-oxo-spiro[6,8-dihydro-5H-pyrazolo[4,3-c]azepine-7,4′-tetrahydropyran]-1-yl)propyl 4-cyano-3-fluoro-benzoate] was tested. Which IC50 did it give?
**A.** < 100 nM

**Q.** Which IC50 does the source give for `CCc1nn(C[C@@H](C)COC(=O)c2ccc(S(=O)(=O)N3CCCC3)cc2)c2c1C(=O)NCC1(CCOCC1)C2` [Example 245, [(2R)-3-(3-ethyl-4-oxo-spiro[6,8-dihydro-5H-pyrazolo[4,3-c]azepine-7,4′-tetrahydropyran]-1-yl)-2-methyl-propyl] 4-pyrrolidin-1-ylsulfonylbenzoate] here?
**A.** < 100 nM

**Q.** Which IC50 does the source give for `CCc1nn(C[C@@H](C)COC(=O)c2cccc(OC)c2F)c2c1C(=O)NCC1(CCOCC1)C2` [Example 190, [(2R)-3-(3-ethyl-4-oxo-spiro[6,8-dihydro-5H-pyrazolo[4,3-c]azepine-7,4′-tetrahydropyran]-1-yl)-2-methyl-propyl] 2-fluoro-3-methoxy-benzoate] here?
**A.** < 100 nM

**Q.** `CCNC(=O)c1ccc(C(=O)OC[C@H](C)Cn2nc(CC)c3c2CC2(CCOCC2)CNC3=O)cc1` [Example 254, [(2R)-3-(3-ethyl-4-oxo-spiro[6,8-dihydro-5H-pyrazolo[4,3-c]azepine-7,4′-tetrahydropyran]-1-yl)-2-methyl-propyl] 4-(ethylcarbamoyl)benzoate] was tested. Which IC50 did it give?
**A.** < 100 nM

**Q.** How did the IC50 turn out when `CCc1nn(C[C@@H](C)COC(=O)c2ccc(C(=O)N3CCOCC3)cc2)c2c1C(=O)NCC1(CCOCC1)C2` [Example 260, [(2R)-3-(3-ethyl-4-oxo-spiro[6,8-dihydro-5H-pyrazolo[4,3-c]azepine-7,4′-tetrahydropyran]-1-yl)-2-methyl-propyl] 4-(morpholine-4-carbonyl)benzoate] was run?
**A.** < 100 nM

**Q.** `CCc1nn(C[C@@H](C)COC(=O)c2ccc(C(F)(F)F)cc2)c2c1C(=O)NCC1(CCOCC1)C2` [Example 212, [(2R)-3-(3-ethyl-4-oxo-spiro[6,8-dihydro-5H-pyrazolo[4,3-c]azepine-7,4′-tetrahydropyran]-1-yl)-2-methyl-propyl] 4-(trifluoromethyl)benzoate] was tested. Which IC50 did it give?
**A.** < 100 nM

**Q.** Which IC50 does the source give for `CCc1nn(CCCOC(=O)c2cccc(S(=O)(=O)C(C)C)c2)c2c1C(=O)NCC1(CCOCC1)C2` [Example 129, 3-(3-ethyl-4-oxo-spiro[6,8-dihydro-5H-pyrazolo[4,3-c]azepine-7,4′-tetrahydropyran]-1-yl)propyl 3-isopropylsulfonylbenzoate] here?
**A.** < 100 nM

**Q.** Which IC50 does the source give for `CCc1nn(CCCOC(=O)c2cc(Cl)cc(OC)c2)c2c1C(=O)NCC1(CCOCC1)C2` [Example 88, 3-(3-ethyl-4-oxo-spiro[6,8-dihydro-5H-pyrazolo[4,3-c]azepine-7,4′-tetrahydropyran]-1-yl)propyl 3-chloro-5-methoxy-benzoate] here?
**A.** < 100 nM

**Q.** For `CCc1nn(CCCOC(=O)c2cc(F)cc(C#N)c2)c2c1C(=O)NCC1(CCOCC1)C2` [Example 53, 3-(3-ethyl-4-oxo-spiro[6,8-dihydro-5H-pyrazolo[4,3-c]azepine-7,4′-tetrahydropyran]-1-yl)propyl 3-cyano-5-fluoro-benzoate], which IC50 is on record?
**A.** < 100 nM

**Q.** `CCc1nn(CCCOC(=O)c2cccc(F)c2C)c2c1C(=O)NCC1(CCOCC1)C2` [Example 36, 3-(3-ethyl-4-oxo-spiro[6,8-dihydro-5H-pyrazolo[4,3-c]azepine-7,4′-tetrahydropyran]-1-yl)propyl 3-fluoro-2-methyl-benzoate] was tested. Which IC50 did it give?
**A.** < 100 nM

**Q.** With `CCc1nn(C[C@@H](C)COC(=O)c2ccccc2)c2c1C(=O)NCC1(CCOCC1)C2` [Example 163, [(2R)-3-(3-ethyl-4-oxo-spiro[6,8-dihydro-5H-pyrazolo[4,3-c]azepine-7,4′-tetrahydropyran]-1-yl)-2-methyl-propyl] benzoate] as the compound, how does the IC50 read?
**A.** < 100 nM

**Q.** For `CCc1nn(C[C@@H](C)COC(=O)c2cc(F)ccc2C(F)(F)F)c2c1C(=O)NCC1(CCOCC1)C2` [Example 223, [(2R)-3-(3-ethyl-4-oxo-spiro[6,8-dihydro-5H-pyrazolo[4,3-c]azepine-7,4′-tetrahydropyran]-1-yl)-2-methyl-propyl] 5-fluoro-2-(trifluoromethyl)benzoate], which IC50 is on record?
**A.** < 100 nM

**Q.** How did the IC50 turn out when `CCc1nn(CCCOC(=O)c2ccc(C(N)=O)cc2)c2c1C(=O)NCC1(CCOCC1)C2` [Example 140, 3-(3-ethyl-4-oxo-spiro[6,8-dihydro-5H-pyrazolo[4,3-c]azepine-7,4′-tetrahydropyran]-1-yl)propyl 4-carbamoylbenzoate] was run?
**A.** < 100 nM

**Q.** For `CCc1nn(C[C@@H](C)COC(=O)c2ccc(S(C)(=O)=O)cc2)c2c1C(=O)NCC1(CCOCC1)C2` [Example 5, [(2R)-3-(3-ethyl-4-oxo-spiro[6,8-dihydro-5H-pyrazolo[4,3-c]azepine-7,4′-tetrahydro-pyran]-1-yl)-2-methyl-propyl] 4-methylsulfonylbenzoate], which IC50 is on record?
**A.** < 100 nM

**Q.** `CCc1nn(CCCOC(=O)c2cc(Cl)ccc2F)c2c1C(=O)NCC1(CCOCC1)C2` [Example 83, 3-(3-ethyl-4-oxo-spiro[6,8-dihydro-5H-pyrazolo[4,3-c]azepine-7,4′-tetrahydropyran]-1-yl)propyl 5-chloro-2-fluoro-benzoate] was tested. Which IC50 did it give?
**A.** < 100 nM

**Q.** Which IC50 does the source give for `CCc1nn(CCCOC(=O)c2ccc(S(=O)(=O)CC)cc2)c2c1C(=O)NCC1(CCOCC1)C2` [Example 115, 3-(3-ethyl-4-oxo-spiro[6,8-dihydro-5H-pyrazolo[4,3-c]azepine-7,4′-tetrahydropyran]-1-yl)propyl 4-ethylsulfonylbenzoate] here?
**A.** < 100 nM

**Q.** For `CCc1nn(C[C@@H](C)COC(=O)c2cccc(C(F)(F)F)c2Cl)c2c1C(=O)NCC1(CCOCC1)C2` [Example 235, [(2R)-3-(3-ethyl-4-oxo-spiro [6,8-dihydro-5H-pyrazolo[4,3-c]azepine-7,4′-tetrahydropyran]-1-yl)-2-methyl-propyl] 2-chloro-3-(trifluoromethyl)benzoate], which IC50 is on record?
**A.** < 100 nM

**Q.** Which IC50 does the source give for `CCc1nn(CCCOC(=O)c2cccc(OC)c2Cl)c2c1C(=O)NCC1(CCOCC1)C2` [Example 91, 3-(3-ethyl-4-oxo-spiro[6,8-dihydro-5H-pyrazolo[4,3-c]azepine-7,4′-tetrahydropyran]-1-yl)propyl 2-chloro-3-methoxy-benzoate] here?
**A.** < 100 nM

**Q.** For `CCc1nn(CCCOC(=O)c2ccc(OC)c(F)c2)c2c1C(=O)NCC1(CCOCC1)C2` [Example 62, 3-(3-ethyl-4-oxo-spiro[6,8-dihydro-5H-pyrazolo[4,3-c]azepine-7,4′-tetrahydropyran]-1-yl)propyl 3-fluoro-4-methoxy-benzoate], which IC50 is on record?
**A.** < 100 nM

Same assay, conditions: read-out: PDE4 IC50 range

**Q.** `CCc1nn(CC2(COC(=O)c3ccc(F)cc3)COC2)c2c1C(=O)NCC1(CCOCC1)C2` [Example 359, [3-[(3-ethyl-4-oxo-spiro[6,8-dihydro-5H-pyrazolo[4,3-c]azepine-7,4′-tetrahydropyran]-1-yl)methyl]oxetan-3-yl]methyl 4-fluorobenzoate] was tested. Which IC50 did it give?
**A.** < 100 nM

**Q.** `CCc1nn(CC(C)(C)COC(=O)c2cccc(S(=O)(=O)N3CCN(C(C)=O)CC3)c2)c2c1C(=O)NCC1(CCOCC1)C2` [Example 325, [3-(3-ethyl-4-oxo-spiro[6,8-dihydro-5H-pyrazolo[4,3-c]azepine-7,4′-tetrahydropyran]-1-yl)-2,2-dimethyl-propyl] 3-(4-acetylpiperazin-1-yl)sulfonylbenzoate] was tested. Which IC50 did it give?
**A.** < 100 nM

**Q.** With `CCc1nn(CC(C)(C)COC(=O)c2ccc(C(=O)N3CCCC3)cc2)c2c1C(=O)NCC1(CCOCC1)C2` [Example 333, [3-(3-ethyl-4-oxo-spiro[6,8-dihydro-5H-pyrazolo[4,3-c]azepine-7,4′-tetrahydropyran]-1-yl)-2,2-dimethyl-propyl] 4-(pyrrolidine-1-carbonyl)benzoate] as the compound, how does the IC50 read?
**A.** < 100 nM

**Q.** Which IC50 does the source give for `CCc1nn(CC(C)(C)COC(=O)c2cccc(C(=O)N3CCNCC3)c2)c2c1C(=O)NCC1(CCOCC1)C2` [Example 346, [3-(3-ethyl-4-oxo-spiro[6,8-dihydro-5H-pyrazolo[4,3-c]azepine-7,4′-tetrahydropyran]-1-yl)-2,2-dimethyl-propyl] 3-(piperazine-1-carbonyl)benzoate] here?
**A.** < 100 nM

**Q.** `CCc1nn(C[C@@H](C)COC(=O)c2cccc(C(N)=O)c2)c2c1C(=O)NCC1(CCOCC1)C2` [Example 263, [(2R)-3-(3-ethyl-4-oxo-spiro[6,8-dihydro-5H-pyrazolo[4,3-c]azepine-7,4′-tetrahydropyran]-1-yl)-2-methyl-propyl] 3-carbamoylbenzoate] was tested. Which IC50 did it give?
**A.** < 100 nM

**Q.** For `CCc1nn(CC(C)(C)COC(=O)c2ccc(C(F)(F)F)cc2)c2c1C(=O)NCC1(CCOCC1)C2` [Example 304, [3-(3-ethyl-4-oxo-spiro[6,8-dihydro-5H-pyrazolo[4,3-c]azepine-7,4′-tetrahydropyran]-1-yl)-2,2-dimethyl-propyl] 4-(trifluoromethyl)benzoate], which IC50 is on record?
**A.** < 100 nM

**Q.** For `CCc1nn(C[C@@H](C)COC(=O)c2cccc(C(=O)N3CCOCC3)c2)c2c1C(=O)NCC1(CCOCC1)C2` [Example 271, [(2R)-3-(3-ethyl-4-oxo-spiro[6,8-dihydro-5H-pyrazolo[4,3-c]azepine-7,4′-tetrahydropyran]-1-yl)-2-methyl-propyl] 3-(morpholine-4-carbonyl)benzoate], which IC50 is on record?
**A.** < 100 nM

From US10906915B2, “Substituted pyrazoloazepin-4-ones and their use as phosphodiesterase inhibitors” (LEO Pharma A/S, priority 2016, dated 2021)
